Numbers after ± are expanded uncertainties.
Details: Liquid, Vibrating wire viscometry

Cc1ccccc1 [toluene]
viscosity [mPa·s]
Details | 273.13 K | 298.15 K | 323.16 K | 343.16 K | 363.16 K
1000 kPa | 0.7735 ± 0.017 | 0.5573 ± 0.013 | 0.4222 ± 0.0099 | 0.3495 ± 0.0085 | 0.2941 ± 0.0075
5000 kPa | 0.7996 ± 0.017 | 0.5744 ± 0.013 | 0.4359 ± 0.01 | 0.3611 ± 0.0087 | 0.3047 ± 0.0077
10000 kPa | 0.832 ± 0.018 | 0.5969 ± 0.013 | 0.4531 ± 0.01 | 0.3757 ± 0.009 | 0.3173 ± 0.0079
20000 kPa | 0.8994 ± 0.019 | 0.6394 ± 0.014 | 0.4894 ± 0.011 | 0.4054 ± 0.0096 | 0.3436 ± 0.0084
30000 kPa | 0.969 ± 0.021 | 0.6892 ± 0.015 | 0.5242 ± 0.012 | 0.4367 ± 0.01 | 0.3694 ± 0.0089

F/C=C/C(F)(F)F [trans-1,3,3,3-tetrafluoropropene]
Details | viscosity [mPa·s]
243.16 K, 61 kPa | 0.3906 ± 0.0092
243.16 K, 1000 kPa | 0.395 ± 0.0093
243.16 K, 3000 kPa | 0.4028 ± 0.0095
243.16 K, 5000 kPa | 0.4116 ± 0.0096
243.16 K, 10000 kPa | 0.4321 ± 0.01
243.16 K, 15000 kPa | 0.4532 ± 0.01
243.16 K, 20000 kPa | 0.4742 ± 0.011
243.16 K, 25000 kPa | 0.4951 ± 0.011
243.16 K, 30000 kPa | 0.517 ± 0.012
253.16 K, 97 kPa | 0.3409 ± 0.0083
253.16 K, 1000 kPa | 0.3462 ± 0.0084
253.16 K, 3000 kPa | 0.3538 ± 0.0086
253.16 K, 5000 kPa | 0.3613 ± 0.0087
253.16 K, 10000 kPa | 0.381 ± 0.0091
253.16 K, 15000 kPa | 0.3999 ± 0.0094
253.16 K, 20000 kPa | 0.4192 ± 0.0098
253.16 K, 25000 kPa | 0.4374 ± 0.01
253.16 K, 30000 kPa | 0.4554 ± 0.01
263.16 K, 148 kPa | 0.2942 ± 0.0075
263.16 K, 1000 kPa | 0.3043 ± 0.0077
263.16 K, 3000 kPa | 0.3119 ± 0.0078
263.16 K, 5000 kPa | 0.3189 ± 0.0079
263.16 K, 10000 kPa | 0.3358 ± 0.0082
263.16 K, 15000 kPa | 0.3534 ± 0.0085
263.16 K, 20000 kPa | 0.3707 ± 0.0089
263.16 K, 25000 kPa | 0.3875 ± 0.0092
263.16 K, 30000 kPa | 0.4047 ± 0.0095
273.15 K, 217 kPa | 0.2572 ± 0.0068
273.15 K, 1000 kPa | 0.2626 ± 0.0069
273.15 K, 3000 kPa | 0.2702 ± 0.007
273.15 K, 5000 kPa | 0.2776 ± 0.0072
273.15 K, 10000 kPa | 0.2949 ± 0.0075
273.15 K, 15000 kPa | 0.3127 ± 0.0078
273.15 K, 20000 kPa | 0.3284 ± 0.0081
273.15 K, 25000 kPa | 0.3451 ± 0.0084
273.15 K, 30000 kPa | 0.3616 ± 0.0087
283.14 K, 308 kPa | 0.2271 ± 0.0063
283.14 K, 1000 kPa | 0.2318 ± 0.0064
283.14 K, 3000 kPa | 0.2383 ± 0.0065
283.14 K, 5000 kPa | 0.2442 ± 0.0066
283.14 K, 10000 kPa | 0.2602 ± 0.0069
283.14 K, 15000 kPa | 0.2755 ± 0.0071
283.14 K, 20000 kPa | 0.2908 ± 0.0074
283.14 K, 25000 kPa | 0.3061 ± 0.0077
283.14 K, 30000 kPa | 0.3203 ± 0.0079
293.15 K, 428 kPa | 0.2016 ± 0.0059
293.15 K, 1000 kPa | 0.2035 ± 0.0059
293.15 K, 3000 kPa | 0.2097 ± 0.006
293.15 K, 5000 kPa | 0.216 ± 0.0061
293.15 K, 10000 kPa | 0.2315 ± 0.0064
293.15 K, 15000 kPa | 0.2459 ± 0.0066
293.15 K, 20000 kPa | 0.2606 ± 0.0069
293.15 K, 25000 kPa | 0.2741 ± 0.0071
293.15 K, 30000 kPa | 0.2877 ± 0.0073
303.15 K, 579 kPa | 0.179 ± 0.0055
303.15 K, 1000 kPa | 0.1816 ± 0.0056
303.15 K, 3000 kPa | 0.1875 ± 0.0056
303.15 K, 5000 kPa | 0.1933 ± 0.0057
303.15 K, 10000 kPa | 0.2085 ± 0.006
303.15 K, 15000 kPa | 0.2227 ± 0.0062
303.15 K, 20000 kPa | 0.2364 ± 0.0064
303.15 K, 25000 kPa | 0.2495 ± 0.0067
303.15 K, 30000 kPa | 0.2625 ± 0.0069
313.14 K, 767 kPa | 0.1587 ± 0.0052
313.14 K, 1000 kPa | 0.1601 ± 0.0052
313.14 K, 3000 kPa | 0.1663 ± 0.0053
313.14 K, 5000 kPa | 0.1728 ± 0.0054
313.14 K, 10000 kPa | 0.1873 ± 0.0056
313.14 K, 15000 kPa | 0.2008 ± 0.0059
313.14 K, 20000 kPa | 0.2151 ± 0.0061
313.14 K, 25000 kPa | 0.2283 ± 0.0063
313.14 K, 30000 kPa | 0.2401 ± 0.0065
323.16 K, 998 kPa | 0.1405 ± 0.0049
323.16 K, 3000 kPa | 0.1479 ± 0.005
323.16 K, 5000 kPa | 0.1539 ± 0.0051
323.16 K, 10000 kPa | 0.1687 ± 0.0053
323.16 K, 15000 kPa | 0.183 ± 0.0056
323.16 K, 20000 kPa | 0.1968 ± 0.0058
323.16 K, 25000 kPa | 0.2093 ± 0.006
323.16 K, 30000 kPa | 0.221 ± 0.0062
333.16 K, 1277 kPa | 0.1239 ± 0.0047
333.16 K, 3000 kPa | 0.1305 ± 0.0048
333.16 K, 5000 kPa | 0.1373 ± 0.0049
333.16 K, 10000 kPa | 0.1527 ± 0.0051
333.16 K, 15000 kPa | 0.1671 ± 0.0053
333.16 K, 20000 kPa | 0.1796 ± 0.0055
333.16 K, 25000 kPa | 0.1914 ± 0.0057
333.16 K, 30000 kPa | 0.2033 ± 0.0059
343.16 K, 1611 kPa | 0.1085 ± 0.0045
343.16 K, 3000 kPa | 0.115 ± 0.0046
343.16 K, 5000 kPa | 0.1227 ± 0.0047
343.16 K, 10000 kPa | 0.1383 ± 0.0049
343.16 K, 15000 kPa | 0.1527 ± 0.0051
343.16 K, 20000 kPa | 0.1657 ± 0.0053
343.16 K, 25000 kPa | 0.1773 ± 0.0055
343.16 K, 30000 kPa | 0.1888 ± 0.0057
353.16 K, 2008 kPa | 0.0939 ± 0.0043
353.16 K, 3000 kPa | 0.0993 ± 0.0044
353.16 K, 5000 kPa | 0.1072 ± 0.0045
353.16 K, 10000 kPa | 0.1241 ± 0.0047
353.16 K, 15000 kPa | 0.139 ± 0.0049
353.16 K, 20000 kPa | 0.1516 ± 0.0051
353.16 K, 25000 kPa | 0.1638 ± 0.0053
353.16 K, 30000 kPa | 0.1749 ± 0.0054
363.16 K, 2475 kPa | 0.079 ± 0.0043
363.16 K, 3000 kPa | 0.0833 ± 0.0042
363.16 K, 5000 kPa | 0.0932 ± 0.0043
363.16 K, 10000 kPa | 0.1125 ± 0.0045
363.16 K, 15000 kPa | 0.1273 ± 0.0047
363.16 K, 20000 kPa | 0.1401 ± 0.0049
363.16 K, 25000 kPa | 0.1516 ± 0.0051
363.16 K, 30000 kPa | 0.1622 ± 0.0052
373.17 K, 3026 kPa | 0.0632 ± 0.0042
373.17 K, 5000 kPa | 0.0809 ± 0.0042
373.17 K, 10000 kPa | 0.1013 ± 0.0044
373.17 K, 15000 kPa | 0.1155 ± 0.0046
373.17 K, 20000 kPa | 0.1286 ± 0.0048
373.17 K, 25000 kPa | 0.1403 ± 0.0049
373.17 K, 30000 kPa | 0.1514 ± 0.0051

— the NIST ThermoML archive (doi:10.1016/j.jct.2013.03.013)
